≈ marks a conversion by molar mass, not a printed value.
Key:
Assay type in all cases: functional
Candida albicans = test: Antifungal activity against Candida albicans by serial dilution method after 24 hrs
Candida tropicalis = test: Antifungal activity against Candida tropicalis by serial dilution method after 24 hrs
Cryptococcus neoformans [1] = test: Antifungal activity against Cryptococcus neoformans by serial dilution method after 72 hrs
Trichophyton rubrum = test: Antifungal activity against Trichophyton rubrum by serial dilution method after 7 days; conditions: 168 h
Aspergillus fumigatus = test: Antifungal activity against Aspergillus fumigatus by serial dilution method after 7 days; conditions: 168 h
Nannizzia gypsea = test: Antifungal activity against Microsporum gypseum by serial dilution method […]
Cryptococcus neoformans [2] = test: Selectivity ratio of compound MIC80 to voriconazole MIC80 for Cryptococcus neoformans

| SMILES | MIC80 (Candida albicans) | MIC80 (Candida tropicalis) | MIC80 (Cryptococcus neoformans [1]) | MIC80 (Trichophyton rubrum) | MIC80 (Aspergillus fumigatus) | MIC80 (Nannizzia gypsea) | Selectivity ratio (Cryptococcus neoformans [2]) |
| --- | --- | --- | --- | --- | --- | --- | --- |
| CN(CCCCOc1ccccc1Br)CC(O)(Cn1cncn1)c1ccc(F)cc1F (centres undefined) | 0.0156 µg/mL (≈ 0.0315 µM) | 0.0156 µg/mL (≈ 0.0315 µM) | 0.004 µg/mL (≈ 0.00807 µM) | 0.0625 µg/mL (≈ 0.126 µM) | > 64 µg/mL | 0.0625 µg/mL (≈ 0.126 µM) | 4 |
| Cc1ccc(OCCCCN(C)CC(O)(Cn2cncn2)c2ccc(F)cc2F)cc1 (centres undefined) | 0.0156 µg/mL (≈ 0.0362 µM) | 0.004 µg/mL (≈ 0.00929 µM) | 0.0625 µg/mL (≈ 0.145 µM) | 0.0156 µg/mL (≈ 0.0362 µM) | 16 µg/mL (≈ 37.2 µM) | 0.0625 µg/mL (≈ 0.145 µM) |  |
| Cc1ccccc1OCCCCN(C)CC(O)(Cn1cncn1)c1ccc(F)cc1F (centres undefined) | 0.0625 µg/mL (≈ 0.145 µM) | 0.0156 µg/mL (≈ 0.0362 µM) | 0.0156 µg/mL (≈ 0.0362 µM) | 0.0625 µg/mL (≈ 0.145 µM) | > 64 µg/mL | 0.0625 µg/mL (≈ 0.145 µM) |  |
| CN(CCCCOc1ccc(F)cc1)CC(O)(Cn1cncn1)c1ccc(F)cc1F (centres undefined) | 0.0156 µg/mL (≈ 0.0359 µM) | 0.004 µg/mL (≈ 0.00921 µM) | 0.0625 µg/mL (≈ 0.144 µM) | 0.0156 µg/mL (≈ 0.0359 µM) | 16 µg/mL (≈ 36.8 µM) | 0.0625 µg/mL (≈ 0.144 µM) |  |
| CN(CCCCOc1ccc(Cl)cc1)CC(O)(Cn1cncn1)c1ccc(F)cc1F (centres undefined) | 0.001 µg/mL (≈ 0.00222 µM) | 0.001 µg/mL (≈ 0.00222 µM) | 0.0156 µg/mL (≈ 0.0346 µM) | 0.0625 µg/mL (≈ 0.139 µM) | 4 µg/mL (≈ 8.87 µM) | 0.0156 µg/mL (≈ 0.0346 µM) |  |
| CN(CCCCOc1ccccc1Cl)CC(O)(Cn1cncn1)c1ccc(F)cc1F (centres undefined) | 0.0156 µg/mL (≈ 0.0346 µM) | 0.0156 µg/mL (≈ 0.0346 µM) | 0.0156 µg/mL (≈ 0.0346 µM) | 0.0625 µg/mL (≈ 0.139 µM) | > 64 µg/mL | 0.0625 µg/mL (≈ 0.139 µM) |  |
| CN(CCCCOc1ccc(C(C)(C)C)cc1)CC(O)(Cn1cncn1)c1ccc(F)cc1F (centres undefined) | 0.0625 µg/mL (≈ 0.132 µM) | 0.0625 µg/mL (≈ 0.132 µM) | 0.25 µg/mL (≈ 0.529 µM) | 0.0625 µg/mL (≈ 0.132 µM) | > 64 µg/mL | 0.0625 µg/mL (≈ 0.132 µM) |  |
| Cc1cccc(OCCCCN(C)CC(O)(Cn2cncn2)c2ccc(F)cc2F)c1 (centres undefined) | 0.0156 µg/mL (≈ 0.0362 µM) | 0.0156 µg/mL (≈ 0.0362 µM) | 0.0625 µg/mL (≈ 0.145 µM) | 0.0625 µg/mL (≈ 0.145 µM) | 64 µg/mL (≈ 149 µM) | 0.0625 µg/mL (≈ 0.145 µM) |  |
| CN(CCCCOc1cccc(N)c1)CC(O)(Cn1cncn1)c1ccc(F)cc1F (centres undefined) | 0.0156 µg/mL (≈ 0.0362 µM) | 0.0156 µg/mL (≈ 0.0362 µM) | 0.25 µg/mL (≈ 0.579 µM) | 0.25 µg/mL (≈ 0.579 µM) | > 64 µg/mL | 0.0625 µg/mL (≈ 0.145 µM) |  |
| CN(CCCCOc1ccc(OCc2ccccc2)cc1)CC(O)(Cn1cncn1)c1ccc(F)cc1F (centres undefined) | 0.0156 µg/mL (≈ 0.0299 µM) | 0.0156 µg/mL (≈ 0.0299 µM) | 0.0156 µg/mL (≈ 0.0299 µM) | 0.0625 µg/mL (≈ 0.12 µM) | 32 µg/mL (≈ 61.2 µM) | 0.0156 µg/mL (≈ 0.0299 µM) |  |
| COc1ccc(OCCCCN(C)CC(O)(Cn2cncn2)c2ccc(F)cc2F)cc1 (centres undefined) | 0.0156 µg/mL (≈ 0.0349 µM) | 0.004 µg/mL (≈ 0.00896 µM) | 0.0625 µg/mL (≈ 0.14 µM) | 0.0156 µg/mL (≈ 0.0349 µM) | 16 µg/mL (≈ 35.8 µM) | 0.0625 µg/mL (≈ 0.14 µM) |  |
| CN(CCCCOc1ccc(Br)cc1)CC(O)(Cn1cncn1)c1ccc(F)cc1F (centres undefined) | 0.001 µg/mL (≈ 0.00202 µM) | 0.001 µg/mL (≈ 0.00202 µM) | 0.004 µg/mL (≈ 0.00807 µM) | 0.0156 µg/mL (≈ 0.0315 µM) | 4 µg/mL (≈ 8.07 µM) | 0.0156 µg/mL (≈ 0.0315 µM) | 4 |
| CN(CCCCOc1cccc(Br)c1)CC(O)(Cn1cncn1)c1ccc(F)cc1F (centres undefined) | 0.0625 µg/mL (≈ 0.126 µM) | 0.001 µg/mL (≈ 0.00202 µM) | 0.0625 µg/mL (≈ 0.126 µM) | 0.0625 µg/mL (≈ 0.126 µM) | 64 µg/mL (≈ 129 µM) | 0.0156 µg/mL (≈ 0.0315 µM) |  |
| CN(CCCCOc1cccc([N+](=O)[O-])c1)CC(O)(Cn1cncn1)c1ccc(F)cc1F (centres undefined) | 0.0156 µg/mL (≈ 0.0338 µM) | 0.004 µg/mL (≈ 0.00867 µM) | 0.0625 µg/mL (≈ 0.135 µM) | 0.0625 µg/mL (≈ 0.135 µM) | 64 µg/mL (≈ 139 µM) | 0.0625 µg/mL (≈ 0.135 µM) |  |
| CN(CCCCOc1ccccc1[N+](=O)[O-])CC(O)(Cn1cncn1)c1ccc(F)cc1F (centres undefined) | 0.0625 µg/mL (≈ 0.135 µM) | 0.0625 µg/mL (≈ 0.135 µM) | 0.25 µg/mL (≈ 0.542 µM) | 0.0625 µg/mL (≈ 0.135 µM) | > 64 µg/mL | 0.0625 µg/mL (≈ 0.135 µM) |  |
| CN(CCCCOc1ccc(N)cc1)CC(O)(Cn1cncn1)c1ccc(F)cc1F (centres undefined) | 0.0625 µg/mL (≈ 0.145 µM) | 0.0156 µg/mL (≈ 0.0362 µM) | 0.25 µg/mL (≈ 0.579 µM) | 1 µg/mL (≈ 2.32 µM) | > 64 µg/mL | 0.25 µg/mL (≈ 0.579 µM) |  |
| CN(CCCCOc1ccc(OC(F)(F)F)cc1)CC(O)(Cn1cncn1)c1ccc(F)cc1F (centres undefined) | 0.0156 µg/mL (≈ 0.0312 µM) | 0.004 µg/mL (≈ 0.00799 µM) | 0.0625 µg/mL (≈ 0.125 µM) | 0.0156 µg/mL (≈ 0.0312 µM) | > 64 µg/mL | 0.0625 µg/mL (≈ 0.125 µM) |  |
| CN(CCCCOc1ccc([N+](=O)[O-])cc1)CC(O)(Cn1cncn1)c1ccc(F)cc1F (centres undefined) | 0.001 µg/mL (≈ 0.00217 µM) | 0.004 µg/mL (≈ 0.00867 µM) | 0.0156 µg/mL (≈ 0.0338 µM) | 0.0625 µg/mL (≈ 0.135 µM) | 64 µg/mL (≈ 139 µM) | 0.0156 µg/mL (≈ 0.0338 µM) |  |
| CN(CCCCOc1ccccc1N)CC(O)(Cn1cncn1)c1ccc(F)cc1F (centres undefined) | 0.0625 µg/mL (≈ 0.145 µM) | 0.0156 µg/mL (≈ 0.0362 µM) | 1 µg/mL (≈ 2.32 µM) | 1 µg/mL (≈ 2.32 µM) | > 64 µg/mL | 0.25 µg/mL (≈ 0.579 µM) |  |
| OC(Cn1cncn1)(Cn1cncn1)c1ccc(F)cc1F [FLUCONAZOLE] | 0.25 µg/mL (≈ 0.816 µM) | 1 µg/mL (≈ 3.27 µM) | 1 µg/mL (≈ 3.27 µM) | 0.25 µg/mL (≈ 0.816 µM) | > 64 µg/mL | 1 µg/mL (≈ 3.27 µM) |  |
| CCC(C)n1ncn(-c2ccc(N3CCN(c4ccc(OCC5COC(Cn6cncn6)(c6ccc(Cl)cc6Cl)O5)cc4)CC3)cc2)c1=O (centres undefined) [ITRACONAZOLE] | 0.125 µg/mL (≈ 0.177 µM) | 0.0156 µg/mL (≈ 0.0221 µM) | 0.5 µg/mL (≈ 0.709 µM) | 0.125 µg/mL (≈ 0.177 µM) | 2 µg/mL (≈ 2.83 µM) | 0.125 µg/mL (≈ 0.177 µM) |  |
| C[C@@H](c1ncncc1F)[C@](O)(Cn1cncn1)c1ccc(F)cc1F [VORICONAZOLE] | 0.0156 µg/mL (≈ 0.0447 µM) | 0.001 µg/mL (≈ 0.00286 µM) | 0.0156 µg/mL (≈ 0.0447 µM) | 0.0156 µg/mL (≈ 0.0447 µM) | 0.25 µg/mL (≈ 0.716 µM) | 0.0156 µg/mL (≈ 0.0447 µM) |  |

— ChEMBL document CHEMBL1154276, “Discovery of highly potent novel antifungal azoles by structure-based rational design” (2009)
